# Experimental data published in patent US12054562B2, “Cell-permeable inhibitory agent and methods of use thereof in treatment of cognitive and mood disorders” (priority 2015, dated 2024).
# Legend:
# [1] = target: T1, α1 subunit containing GABAA receptors (Mus musculus, UniProt P62812); assay: Co-IP and WB, gephyrin and α1 subunit containing GABAA receptors; type: binding; conditions: immunoprecipitates from Example 1, hippocampal tissue
# T1 construct: α1 and α2 subunit containing GABAA receptors in the hippocampal tissue; from tissue; host or cells: hippocampus of adult mice
# [2] = test system: etomidate-induced memory deficits in mice; assay: Novel object recognition task, prevention paradigm; type: in vivo, mouse; conditions: Etom 8 mg/kg plus α5 peptide 20 mg/kg i.p., NOR next day
# Source text: The novel object recognition task involves the presentation of two identical objects for visual inspection (in the case of humans and non-human primates) and exploration in the case of rodents. After a delay, one of the original objects is presented together with a new (novel) object. Humans and animals normally spend time more time looking at (or in the case of mice, exploring) the novel object. Indeed, the test relies on the innate preference of humans and animals for novelty. The inspection or interaction time differs only if the familiar object is recognized. Otherwise, the subject spends an equal amount of time inspecting both objects. […]
# In the present study, mice were handled two times a day, 5 min each before start of behavioral experiments. Object recognition was assessed in a circle opaque chamber with the diameter of 38.5 cm in a regular lit room. […] Movement and interaction with the objects was recorded with a video camera that was mounted above the chamber. The exploratory behavior and mouse activity was analyzed blindly by a person with a good training and the software EthoVision, XT v11.5 provided by the Noldus Information Tech Inc., (Leesburg VA, USA). […] Memory was assessed by measuring the novelty preference ratio (i.e., the ratio of time spent exploring the novel object to the time spent exploring both objects). […]
# T1 sequence (P62812 28-455): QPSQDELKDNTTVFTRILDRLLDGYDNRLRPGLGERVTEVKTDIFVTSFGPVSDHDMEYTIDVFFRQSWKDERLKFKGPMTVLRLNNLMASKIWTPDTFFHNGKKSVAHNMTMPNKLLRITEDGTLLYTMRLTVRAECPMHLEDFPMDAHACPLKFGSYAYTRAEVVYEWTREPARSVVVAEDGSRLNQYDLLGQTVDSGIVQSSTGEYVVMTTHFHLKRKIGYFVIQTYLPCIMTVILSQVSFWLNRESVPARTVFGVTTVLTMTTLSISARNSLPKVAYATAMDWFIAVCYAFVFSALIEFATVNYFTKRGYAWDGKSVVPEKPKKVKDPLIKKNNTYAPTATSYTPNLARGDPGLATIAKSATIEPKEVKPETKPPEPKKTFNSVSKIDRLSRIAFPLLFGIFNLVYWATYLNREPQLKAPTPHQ
sequence,measurement,setting,value
NYFTKRGWAWDGKKAL [inhibitory peptide],effects on α1 subunit containing GABAA receptors (gephyrin interaction),[1],did not have any effects
same,"etomidate-induced memory deficits (NOR, prevention)",[2],could prevent
